Legend:
[1] = biological target: Tyrosine-protein kinase Lck (Homo sapiens, UniProt P06239); assay: Inhibition of Lck
T-cell [2] = assay: Inhibition of T cell activation in human mixed lymphocyte reaction; type: functional, cell-based
Activated CDC42 kinase 1 = Activated CDC42 kinase 1 (Homo sapiens, UniProt Q07912); assay: Inhibition of Ack1
T-cell [3] = assay: Inhibition of anti-CD3/CD28-induced IL2 secretion in human T cells; type: functional, cell-based
[4] = Clearance in Sprague-Dawley rat at 1 mg/kg, iv; type: ADME, organism-based; parameters: dose 1 mg/kg, route intravenous; details: in vivo
[5] = Volume of distribution at steady state in Sprague-Dawley rat at 1 mg/kg, iv; type: ADME, organism-based; parameters: dose 1 mg/kg, route intravenous; details: in vivo, read-out: Vdss
[6] = Half life in Sprague-Dawley rat at 1 mg/kg, iv; type: ADME, organism-based; parameters: dose 1 mg/kg, route intravenous; details: in vivo
[7] = Oral bioavailability in Sprague-Dawley rat at 5 mg/kg; type: ADME, organism-based; details: in vivo
[8] = Cmax in Sprague-Dawley rat at 5 mg/kg, po; type: ADME, organism-based; parameters: dose 5 mg/kg, route oral; details: in vivo
[9] = AUC (0 to infinity) in Sprague-Dawley rat at 5 mg/kg, po; type: ADME, organism-based; parameters: time infinity, dose 5 mg/kg, route oral; details: plasma
[10] = Inhibition of IGFR; parameters: species or system Homo sapiens
[11] = biological target: Tyrosine-protein kinase JAK2 (Homo sapiens, UniProt O60674); assay: Inhibition of Jak2
Angiopoietin-1 receptor = Angiopoietin-1 receptor (Homo sapiens, UniProt Q02763); assay: Inhibition of Tie2
[12] = biological target: Proto-oncogene tyrosine-protein kinase Src (Homo sapiens, UniProt P12931); assay: Inhibition of Src
[13] = biological target: T1, Tyrosine-protein kinase JAK3 (Homo sapiens, UniProt P52333); assay: Inhibition of Jak3
T1 sequence (P52333 whole entry): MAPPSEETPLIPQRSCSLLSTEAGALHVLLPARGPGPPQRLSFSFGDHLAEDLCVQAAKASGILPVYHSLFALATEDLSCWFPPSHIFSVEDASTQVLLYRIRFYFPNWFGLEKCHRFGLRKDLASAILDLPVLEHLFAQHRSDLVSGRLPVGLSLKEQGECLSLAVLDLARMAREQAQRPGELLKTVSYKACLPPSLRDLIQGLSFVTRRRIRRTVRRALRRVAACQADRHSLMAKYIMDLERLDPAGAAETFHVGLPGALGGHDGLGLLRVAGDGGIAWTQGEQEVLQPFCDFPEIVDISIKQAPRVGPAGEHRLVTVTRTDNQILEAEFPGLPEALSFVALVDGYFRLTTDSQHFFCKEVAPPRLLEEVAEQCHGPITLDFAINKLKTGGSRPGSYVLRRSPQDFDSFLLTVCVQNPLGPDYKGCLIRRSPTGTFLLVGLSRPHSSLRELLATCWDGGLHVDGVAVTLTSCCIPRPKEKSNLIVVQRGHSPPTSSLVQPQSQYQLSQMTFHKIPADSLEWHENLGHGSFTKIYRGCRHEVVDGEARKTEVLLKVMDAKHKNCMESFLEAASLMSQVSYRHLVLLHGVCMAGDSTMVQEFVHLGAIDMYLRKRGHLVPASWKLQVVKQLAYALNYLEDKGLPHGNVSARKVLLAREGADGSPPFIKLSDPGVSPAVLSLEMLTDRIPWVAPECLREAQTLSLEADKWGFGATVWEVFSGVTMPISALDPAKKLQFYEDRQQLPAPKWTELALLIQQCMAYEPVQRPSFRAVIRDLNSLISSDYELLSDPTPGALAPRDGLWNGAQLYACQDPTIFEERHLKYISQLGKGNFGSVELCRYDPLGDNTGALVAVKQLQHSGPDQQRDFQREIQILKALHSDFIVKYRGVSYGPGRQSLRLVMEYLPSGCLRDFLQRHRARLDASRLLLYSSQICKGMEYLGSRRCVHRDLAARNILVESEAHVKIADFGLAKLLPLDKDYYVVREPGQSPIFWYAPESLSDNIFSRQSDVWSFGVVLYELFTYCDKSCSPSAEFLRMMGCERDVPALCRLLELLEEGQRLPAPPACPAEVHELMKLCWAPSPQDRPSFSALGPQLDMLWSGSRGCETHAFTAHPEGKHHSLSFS

[14] = biological target: T2, Tyrosine-protein kinase ZAP-70 (Homo sapiens, UniProt P43403); assay: Inhibition of ZAP70
T2 sequence (P43403 whole entry): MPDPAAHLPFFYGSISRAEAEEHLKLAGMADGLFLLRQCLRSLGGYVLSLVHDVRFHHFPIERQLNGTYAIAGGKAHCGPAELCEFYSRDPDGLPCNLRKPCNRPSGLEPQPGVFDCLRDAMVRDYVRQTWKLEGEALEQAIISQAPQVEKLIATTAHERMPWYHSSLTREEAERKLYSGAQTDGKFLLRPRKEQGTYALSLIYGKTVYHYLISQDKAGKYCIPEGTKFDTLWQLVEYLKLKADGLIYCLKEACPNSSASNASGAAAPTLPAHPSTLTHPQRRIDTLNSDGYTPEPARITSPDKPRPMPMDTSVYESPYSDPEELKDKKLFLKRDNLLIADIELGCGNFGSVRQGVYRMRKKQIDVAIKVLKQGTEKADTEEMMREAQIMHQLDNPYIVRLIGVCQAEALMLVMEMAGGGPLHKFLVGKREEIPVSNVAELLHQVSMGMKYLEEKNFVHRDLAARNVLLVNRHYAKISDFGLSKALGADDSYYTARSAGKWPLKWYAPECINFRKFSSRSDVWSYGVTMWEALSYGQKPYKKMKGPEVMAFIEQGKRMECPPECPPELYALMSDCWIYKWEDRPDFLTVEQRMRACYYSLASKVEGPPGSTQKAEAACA

[15] = biological target: Vascular endothelial growth factor receptor 2 (Homo sapiens, UniProt P35968); assay: Inhibition of KDR
[16] = biological target: Epidermal growth factor receptor (Homo sapiens, UniProt P00533)

Tyrosine-protein kinase Lck, sequence (P06239 whole entry): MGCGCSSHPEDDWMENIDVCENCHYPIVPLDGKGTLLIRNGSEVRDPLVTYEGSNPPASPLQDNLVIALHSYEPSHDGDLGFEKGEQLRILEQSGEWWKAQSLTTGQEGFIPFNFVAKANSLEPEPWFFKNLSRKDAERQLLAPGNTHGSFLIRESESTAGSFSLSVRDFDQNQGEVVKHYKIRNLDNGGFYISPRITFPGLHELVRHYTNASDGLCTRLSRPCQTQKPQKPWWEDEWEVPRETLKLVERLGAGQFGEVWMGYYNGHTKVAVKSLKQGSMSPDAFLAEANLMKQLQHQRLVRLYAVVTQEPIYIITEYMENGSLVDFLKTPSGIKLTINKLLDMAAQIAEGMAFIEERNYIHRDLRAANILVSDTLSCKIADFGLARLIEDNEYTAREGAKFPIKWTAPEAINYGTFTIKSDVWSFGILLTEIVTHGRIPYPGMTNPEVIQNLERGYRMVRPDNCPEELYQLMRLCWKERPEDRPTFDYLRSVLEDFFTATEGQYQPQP
Activated CDC42 kinase 1, sequence (Q07912 whole entry): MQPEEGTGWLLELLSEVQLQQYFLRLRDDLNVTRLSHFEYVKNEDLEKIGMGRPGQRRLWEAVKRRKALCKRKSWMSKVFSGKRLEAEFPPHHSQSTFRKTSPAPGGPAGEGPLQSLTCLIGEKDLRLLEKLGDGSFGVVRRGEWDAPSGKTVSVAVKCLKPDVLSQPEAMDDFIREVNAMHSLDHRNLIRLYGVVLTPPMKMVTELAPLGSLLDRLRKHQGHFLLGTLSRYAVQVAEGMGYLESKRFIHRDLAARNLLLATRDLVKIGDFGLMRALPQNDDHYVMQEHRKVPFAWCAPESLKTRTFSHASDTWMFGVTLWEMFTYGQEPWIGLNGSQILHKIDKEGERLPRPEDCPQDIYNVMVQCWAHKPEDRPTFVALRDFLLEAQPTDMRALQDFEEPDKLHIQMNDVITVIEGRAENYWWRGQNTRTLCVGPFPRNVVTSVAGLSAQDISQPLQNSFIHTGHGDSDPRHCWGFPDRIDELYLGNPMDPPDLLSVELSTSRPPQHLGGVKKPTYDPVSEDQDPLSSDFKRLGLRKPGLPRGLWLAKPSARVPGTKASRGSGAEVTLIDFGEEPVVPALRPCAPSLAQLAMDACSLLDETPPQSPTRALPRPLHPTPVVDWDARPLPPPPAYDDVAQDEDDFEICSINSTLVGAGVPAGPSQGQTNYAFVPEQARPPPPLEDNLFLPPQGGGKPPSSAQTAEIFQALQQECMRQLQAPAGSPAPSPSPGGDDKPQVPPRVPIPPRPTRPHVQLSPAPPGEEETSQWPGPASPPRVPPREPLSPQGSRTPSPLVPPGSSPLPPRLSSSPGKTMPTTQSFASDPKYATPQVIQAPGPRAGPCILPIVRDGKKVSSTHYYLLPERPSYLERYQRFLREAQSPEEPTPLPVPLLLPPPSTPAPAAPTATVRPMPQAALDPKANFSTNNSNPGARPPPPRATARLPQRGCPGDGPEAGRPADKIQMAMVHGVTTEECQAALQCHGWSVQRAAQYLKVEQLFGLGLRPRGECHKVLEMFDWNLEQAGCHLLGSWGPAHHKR
Proto-oncogene tyrosine-protein kinase Src, sequence (P12931 2-536 limits assumed): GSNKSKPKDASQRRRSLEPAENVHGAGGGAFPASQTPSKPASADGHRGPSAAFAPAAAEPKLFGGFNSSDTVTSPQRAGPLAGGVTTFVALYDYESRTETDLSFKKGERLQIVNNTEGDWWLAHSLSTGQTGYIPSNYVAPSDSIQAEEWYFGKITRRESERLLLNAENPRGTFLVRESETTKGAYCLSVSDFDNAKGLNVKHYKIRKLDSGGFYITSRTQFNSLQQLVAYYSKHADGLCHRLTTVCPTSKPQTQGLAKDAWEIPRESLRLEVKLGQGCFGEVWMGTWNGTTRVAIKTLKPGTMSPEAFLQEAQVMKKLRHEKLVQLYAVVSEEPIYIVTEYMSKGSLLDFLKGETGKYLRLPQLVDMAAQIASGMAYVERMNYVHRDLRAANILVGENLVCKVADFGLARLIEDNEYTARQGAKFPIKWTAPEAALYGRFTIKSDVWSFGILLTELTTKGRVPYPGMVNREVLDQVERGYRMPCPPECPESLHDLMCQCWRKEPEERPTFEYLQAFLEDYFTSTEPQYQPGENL
Vascular endothelial growth factor receptor 2, sequence (P35968 whole entry): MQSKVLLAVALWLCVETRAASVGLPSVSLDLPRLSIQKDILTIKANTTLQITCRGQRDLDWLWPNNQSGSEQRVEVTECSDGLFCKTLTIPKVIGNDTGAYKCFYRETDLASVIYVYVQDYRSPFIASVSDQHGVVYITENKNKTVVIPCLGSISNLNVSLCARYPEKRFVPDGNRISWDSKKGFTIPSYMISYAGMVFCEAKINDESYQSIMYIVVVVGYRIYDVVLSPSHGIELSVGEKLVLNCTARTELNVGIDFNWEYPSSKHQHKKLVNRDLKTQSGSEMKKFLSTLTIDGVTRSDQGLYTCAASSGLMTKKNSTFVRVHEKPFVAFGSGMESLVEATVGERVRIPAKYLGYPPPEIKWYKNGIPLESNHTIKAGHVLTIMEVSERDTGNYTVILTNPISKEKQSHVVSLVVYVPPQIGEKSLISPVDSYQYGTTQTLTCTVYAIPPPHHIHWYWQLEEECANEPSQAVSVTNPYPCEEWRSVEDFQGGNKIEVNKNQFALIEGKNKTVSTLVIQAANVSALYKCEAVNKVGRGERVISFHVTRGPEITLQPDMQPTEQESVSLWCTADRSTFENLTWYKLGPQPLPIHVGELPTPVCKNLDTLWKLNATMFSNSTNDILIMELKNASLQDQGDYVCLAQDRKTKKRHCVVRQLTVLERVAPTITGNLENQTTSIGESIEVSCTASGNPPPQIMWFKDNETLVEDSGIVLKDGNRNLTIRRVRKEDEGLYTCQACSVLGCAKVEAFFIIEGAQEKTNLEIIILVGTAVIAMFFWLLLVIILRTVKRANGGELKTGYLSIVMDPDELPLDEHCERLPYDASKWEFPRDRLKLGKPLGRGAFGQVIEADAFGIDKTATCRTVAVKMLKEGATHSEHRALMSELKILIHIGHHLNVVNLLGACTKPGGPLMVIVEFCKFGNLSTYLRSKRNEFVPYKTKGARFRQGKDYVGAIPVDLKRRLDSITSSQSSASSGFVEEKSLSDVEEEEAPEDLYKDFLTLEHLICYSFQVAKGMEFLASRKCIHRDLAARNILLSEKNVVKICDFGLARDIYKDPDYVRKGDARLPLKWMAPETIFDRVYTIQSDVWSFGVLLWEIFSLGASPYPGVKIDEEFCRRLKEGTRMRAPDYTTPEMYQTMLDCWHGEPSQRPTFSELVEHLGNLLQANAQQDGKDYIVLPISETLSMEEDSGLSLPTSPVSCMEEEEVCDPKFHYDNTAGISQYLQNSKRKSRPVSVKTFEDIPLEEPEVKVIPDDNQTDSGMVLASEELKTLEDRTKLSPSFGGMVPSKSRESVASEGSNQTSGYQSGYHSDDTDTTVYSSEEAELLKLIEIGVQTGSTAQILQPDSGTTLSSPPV
Angiopoietin-1 receptor, sequence (Q02763 whole entry): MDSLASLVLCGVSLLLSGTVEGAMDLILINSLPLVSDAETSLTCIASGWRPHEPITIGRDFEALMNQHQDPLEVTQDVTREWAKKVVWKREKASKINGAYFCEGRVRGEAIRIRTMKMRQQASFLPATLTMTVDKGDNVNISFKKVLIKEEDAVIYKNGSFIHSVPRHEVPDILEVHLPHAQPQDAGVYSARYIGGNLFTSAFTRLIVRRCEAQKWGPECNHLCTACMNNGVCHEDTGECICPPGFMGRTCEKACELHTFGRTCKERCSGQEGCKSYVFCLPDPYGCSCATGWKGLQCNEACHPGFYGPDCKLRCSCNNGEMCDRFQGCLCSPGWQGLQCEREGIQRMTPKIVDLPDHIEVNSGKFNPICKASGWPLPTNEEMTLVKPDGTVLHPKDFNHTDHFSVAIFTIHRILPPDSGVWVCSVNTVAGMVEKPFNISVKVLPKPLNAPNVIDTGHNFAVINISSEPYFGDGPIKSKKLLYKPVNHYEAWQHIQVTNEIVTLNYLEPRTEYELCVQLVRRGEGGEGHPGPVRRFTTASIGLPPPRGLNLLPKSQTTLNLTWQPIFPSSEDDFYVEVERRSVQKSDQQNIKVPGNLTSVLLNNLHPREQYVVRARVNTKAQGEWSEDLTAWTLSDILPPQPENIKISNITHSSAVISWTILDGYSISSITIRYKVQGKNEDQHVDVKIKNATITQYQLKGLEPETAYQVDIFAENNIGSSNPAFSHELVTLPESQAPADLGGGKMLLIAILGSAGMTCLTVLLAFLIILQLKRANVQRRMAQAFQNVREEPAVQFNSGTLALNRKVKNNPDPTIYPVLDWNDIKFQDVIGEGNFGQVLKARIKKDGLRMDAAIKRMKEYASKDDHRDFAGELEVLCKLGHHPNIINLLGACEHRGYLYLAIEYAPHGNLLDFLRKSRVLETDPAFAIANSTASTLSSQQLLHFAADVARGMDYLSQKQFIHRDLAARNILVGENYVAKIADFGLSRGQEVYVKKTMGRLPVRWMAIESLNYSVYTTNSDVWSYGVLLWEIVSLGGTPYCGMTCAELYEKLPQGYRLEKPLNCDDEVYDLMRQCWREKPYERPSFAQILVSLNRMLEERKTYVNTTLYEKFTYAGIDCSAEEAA

Structure (SMILES) | IC50 [1] [nM] | IC50 (T-cell [2]) [nM] | IC50 (Activated CDC42 kinase 1) [nM] | IC50 (T-cell [3]) [nM] | other results
c1ccc(-c2oc3ncnc(NC[C@H]4CCCO4)c3c2-c2ccccc2)cc1 | 1210 | 2130 | 523 |  | 
c1ccc(-c2oc3ncnc(NC[C@@H]4CCCO4)c3c2-c2ccccc2)cc1 | 122 | 8950 | 24 | 2410 | 
c1ccc(-c2oc3ncnc(NCCN4CCNCC4)c3c2-c2ccccc2)cc1 |  | 1710 | 181 | 690 | clearance [4]: 14.8 mL/min/kg; Vd [5]: 2.77 L/kg; half-life [6]: 142 min; bioavailability [7]: 15%; Cmax [8]: 180 ng/mL; AUC(0-inf) [9]: 1040 ng·h/mL
c1ccc(-c2c(-c3ccc(OCCN4CCCC4)cc3)oc3ncnc(NCCN4CCNCC4)c23)cc1 | 9 | 227 | 98 | 430 | IC50 [10]: 3150 nM; IC50 [11]: > 8.33 µM; IC50 (Angiopoietin-1 receptor): > 25 µM; IC50 [12]: 45 nM; IC50 [13]: 960 nM; IC50 [14]: 992 nM; IC50 [15]: 3100 nM; IC50 [16]: 397 nM
c1ccc(-c2c(-c3ccc(OCCN4CCCC4)cc3)oc3ncnc(NCCC4CCNCC4)c23)cc1 | 14 | 2450 | 332 |  | 
CN(C)CCOc1ccc(-c2oc3ncnc(NC[C@@H]4CCCO4)c3c2-c2ccccc2)cc1 | 6 | 464 | 11 | 119 | 
c1ccc(-c2c(-c3ccc(OCCN4CCCC4)cc3)oc3ncnc(NC[C@@H]4CCCO4)c23)cc1 | 11 | 670 | 16 | 435 | 
c1ccc(CCNc2ncnc3oc(-c4ccc(OCCN5CCCC5)cc4)c(-c4ccccc4)c23)cc1 | 5 | 1670 | 1 | 5720 | 
CN1CCN(Cc2ccc(-c3oc4ncnc(NC[C@@H]5CCCO5)c4c3-c3ccccc3)cc2)CC1 | 6 | 337 | 7 | 293 | 
CC(C)Nc1ncnc2oc(-c3ccc(OCCN4CCCC4)cc3)c(-c3ccccc3)c12 | 36 | 533 | 78 | 199 | IC50 [10]: 1490 nM; IC50 [11]: 4.89 µM; IC50 (Angiopoietin-1 receptor): > 8.33 µM; IC50 [12]: 914 nM; IC50 [13]: 1430 nM; IC50 [14]: 3270 nM; IC50 [15]: 537 nM; IC50 [16]: 1030 nM
CCN1CCN(C(=O)c2ccc(-c3oc4ncnc(NC[C@@H]5CCCO5)c4c3-c3ccccc3)cc2)CC1 | 11 | 437 | 13 | 2420 | 
c1ccc(-c2c(-c3ccc(N4CCOCC4)cc3)oc3ncnc(NCCN4CCNCC4)c23)cc1 | 11 | 227 | 17 |  | 
CN1CCOc2cc(-c3oc4ncnc(NCCN5CCNCC5)c4c3-c3ccccc3)ccc21 | 42 | 3080 | 97 |  | 
c1ccc(-c2c(-c3ccc(CN4CCOCC4)cc3)oc3ncnc(NCCN4CCNCC4)c23)cc1 | 27 | 138 | 91 |  | 
O=C(c1ccc(-c2oc3ncnc(NCCN4CCNCC4)c3c2-c2ccccc2)cc1)N1CCCCC1 | 22 | 121 | 85 |  | 
CN(C)CCOc1ccc(-c2oc3ncnc(NCCN4CCNCC4)c3c2-c2ccccc2)cc1 | 14 | 360 | 148 | 468 | 
COc1cc(-c2oc3ncnc(NCCN4CCNCC4)c3c2-c2ccccc2)ccc1OCCN1CCCCC1 | 22 | 3220 | 586 | 2630 | 
CC(C)(C)Nc1ncnc2oc(-c3ccc(OCCN4CCCC4)cc3)c(-c3ccccc3)c12 | 83 | 2380 | 650 | 3260 | 
COc1cc(-c2oc3ncnc(NC[C@@H]4CCCO4)c3c2-c2ccccc2)ccc1OCCN1CCCCC1 | 8 | 825 | 38 | 193 | 

— ChEMBL document CHEMBL1139142, “Discovery of 4-amino-5,6-biaryl-furo[2,3-d]pyrimidines as inhibitors of Lck: development of an expedient and divergent synthetic route and preliminary SAR” (Bioorg Med Chem Lett, 2007)
